Assay results taken from US7772255B2, “Method of treating tumors with azaxanthones” (Supratek Pharma, Inc., priority 2005, dated 2010).

Experiments:
[1] = Chemical stability of Amlexanox sodium salt solution (HPLC); format: physicochemical; conditions: 20 mg Amlexanox sodium salt in 2 mL Tris buffer pH 7.2; 0.05 molar equivalent of the listed compound; 72 hours, ambient light, access to air; HPLC peak area
Description: 20 mg of crystalline Amlexanox sodium salt was dissolved in a clear glass test tube in 2 mL of Tris buffer, pH 7.2. For each of the stabilizing compounds listed in the Table below, 0.05 molar equivalent of the compound was added to the solution, mixed until dissolved, and left under ambient light, and with access to the air. Concentration of Amlexanox in the sample was determined by HPLC right after preparation, and after 72 hours. The chemical stability of Amlexanox was evaluated by comparison of area under the peak of amlexanox from the two analyses.

[2] = test system: CSML100 cells; experiment: S100A4-positive lung metastasis tumor model, alone or in combinations (Example 25); format: in vivo, mouse; conditions: CSML100 i.v. in A/J mice, mean±SEM
Description: Amlexanox solution for injections was prepared according to the Example 4. […] The animals were then divided randomly into 9 groups (n=9 except for control group): 1) intact control (n=13, saline); 2) Amlexanox (i.v. 100 mg/kg); 3) Amlexanox ([…]. 3 mg/kg); 5) Amlexanox ([…]. […] 10 mg/kg). […] The treatments were started on the day following the tumor cell implantation and continued for 10 consecutive days. […] The animal body weight was recorded as an index of treatment toxicity during the experiment. […] The data are expressed as mean±SEM for the number of metastatic sites on the lung surface.

[3] = test system: B16F10/DX cells; experiment: B16 experimental metastasis model (Example 26); format: in vivo, mouse; conditions: B16F10/DX i.v. in C57BL/6 mice; TPT 2.0 mg/kg i.v. on day 1, 4, and 7; mean±SEM
Description: Amlexanox solution for injections was prepared according to the Example 4. B16F10/DX cell (2.0×10^5 cells per animal) were inoculated intravenously in female C57BL//6 mice (6-7 weeks old) and animals were then divided randomly into 4 groups (n=9 except for control group): 1) intact control (n=12, saline); 2) Amlexanox (100 mg/kg, daily p.o. administration); 3) TPT (2.0 mg/kg i.v. administration on day 1, 4, and 7); 5) Amlexanox (daily p.o. 100 mg/kg)+TPT (i.v. 2.0 mg/kg on day 1, 4, and 7). Intact control received oral administration with 10 ml/kg (volume/body weight) of saline, while Amlexanox was administrated orally and daily with a dose of 100 mg/kg in a volume of 10 ml/kg. The treatments were started from the day following the tumor cell implantation until the end of the protocol. However, TPT was administrated intravenously only on day 1, 4, and 7 after tumor implantation. The animal body weight was recorded as an index of treatment toxicity during the experiment.
The data in Table show metastasis formation in the lung in the mice implanted with B16F10/DX cells. The data are expressed as mean±SEM for the number of metastatic sites on the lung surface.

SMILES	Retained Amlexnox [1] [%]	also measured
O=C1O[C@H]([C@@H](O)CO)C(O)=C1O [Ascorbic acid]	99.5	
Cn1c(=O)c2c(ncn2C)n(C)c1=O [Caffeine]	96.8	
COc1cccc2c1C(=O)c1c(O)c3c(c(O)c1C2=O)C[C@@](O)(C(=O)CO)C[C@@H]3O[C@H]1C[C@H](N)[C@H](O)[C@H](C)O1 [Dox, doxorubicin]		Lung Metastasis Number per Animal ([2]; Dox i.v. 3 mg/kg on day 1, 4, 7): 15.6 ± 2.66
Cc1occc(=O)c1O [Maltol]	99.6	
COC(=O)c1ccc(O)cc1 [Methyl 4-hydroxybenzoate]	93.1	
CCCOC(=O)c1cc(O)c(O)c(O)c1 [Propyl galate]	99.7	
CC[C@@]1(O)C(=O)OCc2c1cc1n(c2=O)Cc2cc3c(CN(C)C)c(O)ccc3nc2-1 [TPT, topotecan]		Lung Metastasis Number per Animal ([2]; TPT i.v. 3 mg/kg on day 1, 4, 7): 6.20 ± 1.32; Lung Metastasis Number per Animal [3]: 88.0 ± 8.79
